The source of these data is US9902761B2, “Polypeptides, nucleic acids and uses thereof” (AGENCY FOR SCIENCE, TECHNOLOGY AND RESEARCH, priority 2013, dated 2018).

For one test, the system named is PI3K/AKT pathway. Description: signaling pathway assay in starved hESCs pulsed with peptide (SDS-PAGE, western). Type of test: cell-based, human. As to conditions: 5 uM peptide after 2-hour starvation. How it is done: To assay the signaling pathway activated by ELA, hESCs were dissociated and plated in mTSER1 for 48 hours, followed by a 2-hour starvation in DMEM/F12. Synthetically produced ELA or ELA^RR>GG peptides, dialyzed against PBS to remove any residual synthesis buffers, were added at a final concentration of 5 uM (or as indicate(D) for the indicated period of time. Where applicable, PI3K inhibitors LY294002 (5 uM) and Wortmannin (1 uM) were added 30 minutes before pulsing with ELA peptides. Cells were lysed with PhosphoSafe™ (Millipore) for SDS-PAGE.

In a further test the target is T1, ELA (Homo sapiens, UniProt P0DMC3).
T1 construct: ELA is an endogenous secreted peptide that is essential for the survival and self-renewal of hESCs; endogenous in cells; host or cells: hESCs (Shef4 / Shef4TetR5)
T1 sequence (P0DMC3 23-54): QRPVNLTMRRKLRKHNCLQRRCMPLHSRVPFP
Briefly: extracellular neutralizing assay with affinity purified anti-ELA antibodies in hESC culture. Type of test: cell-based. As to conditions: peptide added with α N antibodies.

Test [1] deals with hESCs. Briefly: stress-induced apoptosis of hESCs by ActinomycinD. The class given is cell-based, human. As to conditions: nanomolar concentrations of ActinomycinD. As for the experimental part:
To induce apoptosis, hESCs were treated with the indicated doses of ActinomycinD (Sigma) or ionizing radiation followed by Aqueous One Cell Titer (Promega) or CASPASE GLO3/7 (Promega) assays 12 hours post-treatment.

Test [2] deals with hESCs. Briefly: insulin replacement assay in hESCs. Type of test: cell-based, human. To be noted: SHEF4 and HESC3 hESCs, 24 hours of growth without INSULIN. How it is done:
For insulin replacement assays, SHEF4 or HESC3 hESCs were cultured in TSER-E5 (Stem Cell Technologies) supplemented with TGF-β (5 ng/ml, R&D Systems) and bFGF (100 ng/ml, Invitrogen) with and without INSULIN (10 ug/ml, SIGMA).

For test [3], the system named is hESCs. Description: xCELLigence real time growth assay, cell counts and colony size of hESCs. Type of test: cell-based, human. As to conditions: cell counts, colony size, real-time cell indices; peptide 2.5 uM (10 μg/ml). How it is done: Feeder-free hESCs were cultured in clumps in mTSER1 (Stem Cell Technologies) on Matrigel (BD 354277).
hESCs were dissociated into single cells using Accutase (Stem Cell Technologies) and plated in the presence of 10 μM Y-27632 (ROCK inhibitor) for 12 hours (Watanabe et al., 2007).
For xCELLigence real time growth assays, 4000 cells were plated per well of an E-plate (ACEA Biosciences) with media changes every 48 hours.
Recombinant ELA was added at 2.5 uM (or 10 μg/ml). Cell cycle studies were performed with Click-iT EDU staining kit (Invitrogen) and by performing a double thymidine block (2.5 mM thymidine; 16 hour block, 8 hour release, 16 hour block) followed by DAPI staining for DNA content at the indicated times following release.

Another test relates to VSV-G pseudotyped virus. Type of test: cell-based, HIV (VSV).
The next test relates to HIV-1 NLAD8. Description: HIV inhibition assay in P4C5 HeLa cells (β-gal activity). The class given is cell-based. To be noted: CCR5-tropic virus.
The next test has as its system HIV-1 NL43. The test is described as above. The class given is cell-based. To be noted: CXCR4-tropic strain.

As for “ELA^RR>GG: doubly mutated ELA mutant peptide (R31G, R32G), non-signaling (QRPVNLTMGGKLRKHNCLQRRCMPLHSRVPFP)”, in the test on PI3K/AKT pathway, the “phosphorylation of AKT at serine 473 and PRAS40 at threonine 246” value is given as “not observed”. Moreover, the “competition of the neutralizing activity of the antibody by peptide” value with ELA was “competed out”. Besides, the “resistance or sensitivity to ActinomycinD” value with hESCs [1] is on record as “no protective effect”. In the test on hESCs [2], the “rescue in cell viability in the absence of INSULIN” value was “exerted no effects”. Moreover, in the test on hESCs [3], the “growth of hESCs relative to untreated cells” value is “without effect”.
Turning to `Cc1ccnc2c1NC(=O)c1cccnc1N2C1CC1` [Nevirapine, reference compound], the “inhibition of infection with VSV-G pseudotyped virus” value with VSV-G pseudotyped virus was “blocks all viruses tested”. Further, in the test on HIV-1 NLAD8, the “inhibition of infection with HIV-1 NLAD8” value was “blocks all viruses tested”. The “inhibition of infection with HIV-1 NL43” value in the test with HIV-1 NL43 was “blocks all viruses tested”.
